Key:
[1] = molecular target: T1, HiBit-KRAS^G12C (Homo sapiens, UniProt P01116, G12C); experiment: HiBit degradation assay in MiaPaCa-2 HiBit-KRas^G12C cells; type: cell-based; settings: 24 hours; for Dmax: MIA PaCa-2, MiaPaCa-2 HiBit-KRas^G12C cells; for Dmax / KRas^G12C-HiBiT (MiaPaCa; 0.5% DMSO) DMax: maximum degradation; for DC50: read-out: KRas^G12C-HiBiT (MiaPaCa; 0.5% DMSO) IC50; for DC50 / KRas^G12C-HiBiT (MiaPaCa; 0.5% DMSO) DMax: MiaPaCa-2 HiBit-KRas^G12C cells
Procedure, shortened: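 MiaPaCa-2 cells with CRISPR N-terminal HiBit knock-in on one endogenous KRAS^G12C allele, treated 24 hours at 37° C with compound titrated 10 μM to 20 nM (0.1% or 0.5% DMSO). Lytic HiBit luminescence normalized to DMSO, 4-parameter fit giving DC50 and Dmax; points cytotoxic to […] cells by alamar blue excluded.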

[2] = molecular target: T1, HiBit-KRAS^G12C; experiment: HiBit degradation assay in SW1573 HiBit-KRas^G12C cells; type: cell-based; parameters: expressed in transfected cells; host or cells: SW1573 (clone E6), modified pcDNA3.1 vector, TK promoter; settings: 24 hours; for DC50 / KRas^G12C-HiBiT (SW1573; 0.5% DMSO) Dmax**: SW1573 HiBit-KRas^G12C; for Dmax: SW1573, SW1573 HiBit-KRas^G12C
Procedure, shortened: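 SW1573 cells stably expressing N-terminally HiBit-tagged KRAS G12C, under the TK promoter, were treated 24 h at 37 °C with 10 μM to 20 nM compound in 0.1% or 0.5% DMSO. Residual HiBit luminescence normalised to DMSO and fitted with a 4-parameter model for DC50 and Dmax. Points with ≥50% viability loss (alamar blue) excluded.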

[3] = 0.5% DMSO, read-out: KRas^G12C-HiBiT (MiaPaCa; 0.5% DMSO) DMax
[4] = read-out: KRas^G12C-HiBiT (SW1573; 0.5% DMSO) IC50***, 0.5% DMSO
[5] = 0.5% DMSO, read-out: KRas^G12C-HiBiT (SW1573; 0.5% DMSO) Dmax**

T1 sequence (P01116 1-186 isoform P01116-2 G12C limits assumed): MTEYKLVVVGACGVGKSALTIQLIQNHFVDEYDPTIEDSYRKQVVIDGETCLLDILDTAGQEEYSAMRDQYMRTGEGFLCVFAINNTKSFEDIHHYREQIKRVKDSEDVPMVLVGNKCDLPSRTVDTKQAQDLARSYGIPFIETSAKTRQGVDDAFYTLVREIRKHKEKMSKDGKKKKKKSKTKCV

Row | DC50 ([1]; 0.5% DMSO) [nM] | DC50 [2, 4] [nM] | KRas^G12C-HiBiT (MiaPaCa; 0.5% DMSO) DMax ([1]; 0.5% DMSO) | KRas^G12C-HiBiT (SW1573; 0.5% DMSO) Dmax** ([2]; 0.5% DMSO) | Structure (SMILES) | Dmax [1, 3] [%] | Dmax [2, 5] [%] | Dmax ([1]; 0.1% DMSO, read-out: KRas^G12C-HiBiT (MiaPaCa; 0.1% DMSO) DMax) [%] | Dmax ([2]; 0.1% DMSO, read-out: KRas^G12C-HiBit (SW1573; 0.1% DMSO) Dmax**) [%] | DC50 ([2]; 0.1% DMSO, read-out: KRas^G12C-HIBit (SW1573; 0.1% DMSO) DC50*) [nM]
1 | > 1000 | > 1000 |  |  | C=CC(=O)N1CCN(c2nc(OCCN3CCC(COc4cc([C@H](C(=O)N5C[C@H](O)C[C@H]5C(=O)N[C@@H](C)c5ccc(-c6scnc6C)cc5)C(C)C)on4)CC3)nc3c(F)c(-c4cc(O)cc5ccccc45)c(Cl)cc23)CC1 (atropisomer, axis not shown) [Compound 146, (2S,4R)-1-[(2R)-2-(3-{[1-(2-{[6-chloro-8-fluoro-7-(3-hydroxynaphthalen-1-yl)-4-[4-(prop-2-enoyl)piperazin-1-yl]quinazolin-2-yl]oxy}ethyl)piperidin-4-yl]methoxy}-1,2-oxazol-5-yl)-3-methylbutanoyl]-4-hydroxy-N-[(1S)-1-[4-(4-methyl-1,3-thiazol-5-yl)phenyl]ethyl]pyrrolidine-2-carboxamide] | 35 to 70 |  |  |  | 
2 | 100 to 1000 | 100 to 1000 | B (35 < B < 70) |  | C=CC(=O)N1CCN(c2nc(OCCN3CCC(COc4cc([C@H](C(=O)N5C[C@H](O)C[C@H]5C(=O)N[C@@H](C)c5ccc(-c6scnc6C)cc5)C(C)C)on4)CC3)nc3c(F)c(-c4cc(O)cc5ccccc45)c(Cl)cc23)CC1 (atropisomer, axis not shown) [Compound 147, (2S,4R)-1-[(2R)-2-(3-{[1-(2-{[6-chloro-8-fluoro-7-(3-hydroxynaphthalen-1-yl)-4-[4-(prop-2-enoyl)piperazin-1-yl]quinazolin-2-yl]oxy}ethyl)piperidin-4-yl]methoxy}-1,2-oxazol-5-yl)-3-methylbutanoyl]-4-hydroxy-N-[(1S)-1-[4-(4-methyl-1,3-thiazol-5-yl)phenyl]ethyl]pyrrolidine-2-carboxamide] |  | > 70 |  |  | 
3 | 100 to 1000 | > 1000 |  |  | C=CC(=O)N1CCN(c2nc(OCCN3CCC(COc4cc([C@@H](C(=O)N5C[C@H](O)C[C@H]5C(=O)N[C@@H](C)c5ccc(-c6scnc6C)cc5)C(C)C)on4)CC3)nc3c(F)c(-c4cc(O)cc5ccccc45)c(Cl)cc23)C[C@@H]1CC#N (atropisomer, axis not shown) [Compound 154, (2S,4R)-1-[(2S)-2-[3-({1-[2-({6-chloro-4-[(3S)-3-(cyanomethyl)-4-(prop-2-enoyl)piperazin-1-yl]-8-fluoro-7-(3-hydroxynaphthalen-1-yl)quinazolin-2-yl}oxy)ethyl]piperidin-4-yl}methoxy)-1,2-oxazol-5-yl]-3-methylbutanoyl]-4-hydroxy-N-[(1S)-1-[4-(4-methyl-1,3-thiazol-5-yl)phenyl]ethyl]pyrrolidine-2-carboxamide] | < 35 |  |  |  | 
4 |  |  |  |  | C=CC(=O)N1CCN(c2nc(OCCN3CCC(COCC(=O)N[C@H](C(=O)N4C[C@@H](O)C[C@H]4C(=O)N[C@@H](C)c4ccc(-c5scnc5C)cc4)C(C)(C)C)CC3)nc3c(F)c(-c4cc(O)cc5ccccc45)c(Cl)cc23)C[C@@H]1CC#N (atropisomer, axis not shown) [Compound 162, (2S,4S)-1-[(2S)-2-[2-({1-[2-({6-chloro-4-[(3S)-3-(cyanomethyl)-4-(prop-2-enoyl)piperazin-1-yl]-8-fluoro-7-(3-hydroxynaphthalen-1-yl)quinazolin-2-yl}oxy)ethyl]piperidin-4-yl}methoxy)acetamido]-3,3-dimethylbutanoyl]-4-hydroxy-N-[(1S)-1-[4-(4-methyl-1,3-thiazol-5-yl)phenyl]ethyl]pyrrolidine-2-carboxamide] | 35 to 70 | < 35 |  |  | 
5 |  |  | A (A ≥ 70) | A (A ≥ 70) | C=CC(=O)N1CCN(c2nc(OCCN3CCC(COCC(=O)N[C@H](C(=O)N4C[C@H](O)C[C@H]4C(=O)N[C@@H](C)c4ccc(-c5scnc5C)cc4)C(C)(C)C)CC3)nc3c(F)c(-c4cc(O)cc5ccccc45)c(Cl)cc23)C[C@@H]1CC#N (atropisomer, axis not shown) [Compound 163, (2S,4R)-1-[(2S)-2-[2-({1-[2-({6-chloro-4-[(3S)-3-(cyanomethyl)-4-(prop-2-enoyl)piperazin-1-yl]-8-fluoro-7-(3-hydroxynaphthalen-1-yl)quinazolin-2-yl}oxy)ethyl]piperidin-4-yl}methoxy)acetamido]-3,3-dimethylbutanoyl]-4-hydroxy-N-[(1S)-1-[4-(4-methyl-1,3-thiazol-5-yl)phenyl]ethyl]pyrrolidine-2-carboxamide] |  |  |  |  | 
6 | > 1000 | 100 to 1000 |  | B (35 < B < 70) | C=C(F)C(=O)N1CCN(c2nc(OCCN3CCC(COc4cc([C@H](C(=O)N5C[C@H](O)C[C@H]5C(=O)N[C@@H](C)c5ccc(-c6scnc6C)cc5)C(C)C)on4)CC3)nc3c(F)c(-c4cc(O)cc5ccccc45)c(Cl)cc23)C[C@@H]1CC#N (atropisomer, axis not shown) [Compound 166, (2S,4R)-1-[(2R)-2-[3-({1-[2-({6-chloro-4-[(3S)-3-(cyanomethyl)-4-(2-fluoroprop-2-enoyl)piperazin-1-yl]-8-fluoro-7-(3-hydroxynaphthalen-1-yl)quinazolin-2-yl}oxy)ethyl]piperidin-4-yl}methoxy)-1,2-oxazol-5-yl]-3-methylbutanoyl]-4-hydroxy-N-[(1S)-1-[4-(4-methyl-1,3-thiazol-5-yl)phenyl]ethyl]pyrrolidine-2-carboxamide] |  |  |  |  | 
7 | < 100 | < 100 |  | A (A ≥ 70) | C=C(F)C(=O)N1CCN(c2nc(OCCN3CCC(COc4cc([C@H](C(=O)N5C[C@H](O)C[C@H]5C(=O)N[C@@H](C)c5ccc(-c6scnc6C)cc5)C(C)C)on4)CC3)nc3c(F)c(-c4cc(O)cc5ccccc45)c(Cl)cc23)C[C@@H]1CC#N (atropisomer, axis not shown) [Compound 167, (2S,4R)-1-[(2R)-2-[3-({1-[2-({6-chloro-4-[(3S)-3-(cyanomethyl)-4-(2-fluoroprop-2-enoyl)piperazin-1-yl]-8-fluoro-7-(3-hydroxynaphthalen-1-yl)quinazolin-2-yl}oxy)ethyl]piperidin-4-yl}methoxy)-1,2-oxazol-5-yl]-3-methylbutanoyl]-4-hydroxy-N-[(1S)-1-[4-(4-methyl-1,3-thiazol-5-yl)phenyl]ethyl]pyrrolidine-2-carboxamide] | > 70 |  |  |  | 
8 | < 100 | < 100 | A (A ≥ 70) | A (A ≥ 70) | C=CC(=O)N1CCN(c2nc(OCCN3CCC(COc4cc([C@H](C(=O)N5C[C@H](O)C[C@H]5C(=O)N[C@@H](C)c5ccc(-c6scnc6C)cc5)C(C)C)on4)CC3)nc3c(F)c(-c4cc(O)cc5ccccc45)c(Cl)cc23)C[C@@H]1CC#N (atropisomer, axis not shown) [Compound 173, (2S,4R)-1-[(2R)-2-[3-({1-[2-({6-chloro-4-[(3S)-3-(cyanomethyl)-4-(prop-2-enoyl)piperazin-1-yl]-8-fluoro-7-(3-hydroxynaphthalen-1-yl)quinazolin-2-yl}oxy)ethyl]piperidin-4-yl}methoxy)-1,2-oxazol-5-yl]-3-methylbutanoyl]-4-hydroxy-N-[(1S)-1-[4-(4-methyl-1,3-thiazol-5-yl)phenyl]ethyl]pyrrolidine-2-carboxamide] |  |  |  |  | 
9 |  |  |  |  | C=CC(=O)N1CCN(c2nc(OCCN3CCC(OCCOc4cc([C@H](C(=O)N5C[C@H](O)C[C@H]5C(=O)N[C@@H](C)c5ccc(-c6scnc6C)cc5)C(C)C)on4)CC3)nc3c(F)c(-c4cc(O)cc5ccccc45)c(Cl)cc23)C[C@@H]1CC#N (single isomer, unassigned) [Compound 21] | > 70 | > 70 | > 70 | > 70 | 100 to 1000

Row | Structure (SMILES) | DC50 ([1]; 0.5% DMSO) [nM] | DC50 [2, 4] [nM] | KRas^G12C-HiBiT (MiaPaCa; 0.5% DMSO) DMax ([1]; 0.5% DMSO) | KRas^G12C-HiBiT (SW1573; 0.5% DMSO) Dmax** ([2]; 0.5% DMSO) | Dmax [1, 3] [%] | Dmax [2, 5] [%] | Dmax ([1]; 0.1% DMSO, read-out: KRas^G12C-HiBiT (MiaPaCa; 0.1% DMSO) DMax) [%] | Dmax ([2]; 0.1% DMSO, read-out: KRas^G12C-HiBit (SW1573; 0.1% DMSO) Dmax**) [%] | DC50 ([2]; 0.1% DMSO, read-out: KRas^G12C-HIBit (SW1573; 0.1% DMSO) DC50*) [nM]
10 | C=C(F)C(=O)N1CCN(c2nc(OCCN3CCC(COCC(=O)N[C@H](C(=O)N4C[C@H](O)C[C@H]4C(=O)N[C@@H](C)c4ccc(-c5scnc5C)cc4)C(C)(C)C)CC3)nc3c(F)c(-c4cc(O)cc5ccccc45)c(Cl)cc23)C[C@@H]1CC#N (atropisomer, axis not shown) [Compound 151, (2S,4R)-1-[(2S)-2-[2-({1-[2-({6-chloro-4-[(3S)-3-(cyanomethyl)-4-(2-fluoroprop-2-enoyl)piperazin-1-yl]-8-fluoro-7-(3-hydroxynaphthalen-1-yl)quinazolin-2-yl}oxy)ethyl]piperidin-4-yl}methoxy)acetamido]-3,3-dimethylbutanoyl]-4-hydroxy-N-[(1S)-1-[4-(4-methyl-1,3-thiazol-5-yl)phenyl]ethyl]pyrrolidine-2-carboxamide] |  | < 100 |  |  | > 70 | > 70 |  |  | 

Reference: US20220370416A1, “COMPOUNDS AND METHODS FOR TARGETED DEGRADATION OF KRAS” (Arvinas Operations, Inc., priority 2020, published 2022)
